Values of other authors in patent publication US9822391B2, “Methods for monitoring methotrexate therapy” (priority 2010, dated 2017).

Columns and labels:
AICAR transformylase = AICAR transformylase (Homo sapiens, UniProt P31939); settings: relative to MTX; Allegra et al., 1987
[1] = approximately 5-10% of individuals who do not metabolize MTX effectively; within the first few hours following once weekly administration; Chladek et al., 1998

Chain of AICAR transformylase (P31939 whole entry, species assumed): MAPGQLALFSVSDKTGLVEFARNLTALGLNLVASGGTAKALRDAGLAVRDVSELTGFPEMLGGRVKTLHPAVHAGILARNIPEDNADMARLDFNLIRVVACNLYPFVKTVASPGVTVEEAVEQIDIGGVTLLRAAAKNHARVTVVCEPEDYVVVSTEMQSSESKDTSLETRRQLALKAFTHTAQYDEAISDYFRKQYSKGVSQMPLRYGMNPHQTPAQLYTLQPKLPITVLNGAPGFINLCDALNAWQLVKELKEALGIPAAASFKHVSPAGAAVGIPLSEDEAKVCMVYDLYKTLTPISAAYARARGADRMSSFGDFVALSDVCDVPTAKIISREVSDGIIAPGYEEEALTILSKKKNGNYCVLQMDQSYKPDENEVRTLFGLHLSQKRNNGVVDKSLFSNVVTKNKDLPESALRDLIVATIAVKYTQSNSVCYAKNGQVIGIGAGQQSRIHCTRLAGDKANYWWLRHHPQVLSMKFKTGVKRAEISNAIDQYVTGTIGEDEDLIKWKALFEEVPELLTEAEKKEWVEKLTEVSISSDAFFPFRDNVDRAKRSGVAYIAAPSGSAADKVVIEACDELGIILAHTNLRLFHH

Row | Compound | fold more potent than MTX itself against AICAR transformylase (AICAR transformylase) | excretion of the drug in urine [1]
1 | CN(Cc1cnc2nc(N)nc(N)c2n1)c1ccc(C(=O)NC(CCC(=O)NC(CCC(=O)NC(CCC(=O)NC(CCC(=O)NC(CCC(=O)O)C(=O)O)C(=O)O)C(=O)O)C(=O)O)C(=O)O)cc1 (centres unmarked) [pentaglutamylated form of MTX] | 2500 fold | –
2 | CN(Cc1cnc2nc(N)nc(N)c2n1)c1ccc(C(=O)N[C@@H](CCC(=O)O)C(=O)O)cc1 [MTX, Methotrexate] | – | virtually the totality of the drug excreted unchanged in the urine
